Assay: Human HepG2 cell viability assay in 384 well format
Assay type: toxicity, cell-based
Parameters: dose 125 nL, time 70.5 hour; cytotoxicity at 70.5 h: concentration not given beside the values
Conditions: HepG2 cells, read-out: Inhibition

Row | Structure (SMILES) | cytotoxicity at 70.5 h
1 | CC(C)c1nnc2ccc(N3CCCC(C(=O)Nc4nccs4)C3)nn12 (stereo not drawn) | -25.2%
2 | C[C@@H]1C[C@H]2CN(C(=O)C3=CCCCC3)C[C@H]2O1 | -10.1%
3 | Cc1cnn(CCCn2c(C)cc(C(F)(F)F)cc2=O)c1 | -9.21%
4 | CN(Cc1cccnc1)C(CO)c1cccc(Br)c1 (stereo not drawn) | -7.61%
5 | O=C(O)C1(Cc2cccc(Cl)c2)CCCN(c2ncnc3[nH]ccc23)C1 (stereo not drawn) | -13%
6 | CCc1nc(C)c(C(=O)NCCN2CCN(C(C)=O)CC2)s1 | -7.15%
7 | CC(NC1CCSCC1)c1ccccc1-n1cccn1 (stereo not drawn) | -11.7%
8 | CC1c2ncc(CN3CCN(C)CC3)n2CCN1CC1CC1 (stereo not drawn) | -11.9%
9 | Cc1cccnc1C(Nc1nccc(C2CCCC2)n1)C1CC1 (stereo not drawn) | 0.357%
10 | COCCNCc1cc2c(C)cc(C)cc2n2c(=O)n(C)nc12 | 2.41%
11 | COCCN1C[C@@H](c2ccccc2)[C@@]2(CCN(CC(=O)N(C)C)C2=O)C1 | -9.6%
12 | COc1cccc(-c2noc3c2CN(c2nc(C)ncc2C)CC3)c1 | -9.61%
13 | Cc1c(C(=O)N(C)CC(C)O)sc2nc(C(F)(F)F)ccc12 (stereo not drawn) | -9.55%
14 | Cc1cc(N2CCC(Cc3ccccc3)CC2)nc(-c2ccncc2)n1 | -10.7%
15 | COCCN1CCCC12CCCN(c1nncs1)C2 (stereo not drawn) | -8.64%
16 | CCOc1cccc2c1OCC(C(=O)NS(=O)(=O)Cc1ccccc1)=C2 | 1.24%
17 | O=C(NCCO)Nc1cccc(Cl)c1SC(F)F | 16.9%
18 | COCc1ccc(C(=O)N2CCOCC2c2ccc(C)o2)cc1 (stereo not drawn) | -0.476%
19 | C/C=C(/C)C(=O)NS(=O)(=O)c1ccc(C(F)(F)F)cn1 | -18.7%
20 | Cn1cc(C2CCCN2c2ncnc3[nH]ccc23)cn1 (stereo not drawn) | 5.41%
21 | CC(=O)N1N=C(c2ccccc2)OC1C(=O)N(C)CCc1ccccc1 (stereo not drawn) | 20%
22 | Cc1sc(N)nc1-c1ccc(Cl)cc1 | 15.4%
23 | CC(c1cc(F)ccc1F)N1CCN(C(=O)c2ccc(=O)[nH]c2)CC1 (stereo not drawn) | -1.22%

Row | Structure (SMILES) | cytotoxicity at 70.5 h
24 | CN1CCN(c2cc(CNC(=O)c3ccc(=O)[nH]n3)ccn2)CC1 | -21.2%
25 | CCOCC(=O)N1C[C@@H]2COC[C@]2(c2nc(C)no2)C1 | -7.6%
26 | CN1C[C@@H](F)[C@@H](OCc2nc3ccccc3n2C)C1 | -2.45%
27 | NC(=O)CN1CCCC1c1ccccc1Br (stereo not drawn) | 7.42%
28 | c1cncc(OC[C@]23COC[C@H]2CN(Cc2cccs2)C3)c1 | -7.3%
29 | Cc1cnn(C2CCCN(C(=O)Cc3ccc(-n4cccn4)cc3)C2)c1 (stereo not drawn) | -3.4%
30 | Cn1cc(C(=O)Nc2ccnc(Oc3ccccc3)c2)ccc1=O | -5.49%
31 | Cc1cc(CNC(=O)C2CCCCN2C(=O)OC(C)(C)C)no1 (stereo not drawn) | -10.1%
32 | CC(C)OCCN1CCC(Nc2ccc(C#N)cc2F)CC1 | -8.23%
33 | Cc1noc(C)c1-c1ccc(C2CCCN2C(=O)Cn2ccnc2)nc1 (stereo not drawn) | 15.1%
34 | CC(C)OCCC(=O)NCCc1csc(N2CCCC2)n1 | 5.53%
35 | O=C(NCC1CC1)C1CCC2(CCN(C(=O)c3ccco3)CC2)O1 (stereo not drawn) | -15.5%
36 | CC(C)N1CCC(N2CCCC(C(=O)NCC3(C)COC3)C2)CC1 (stereo not drawn) | -3.7%
37 | CN(C)C(=O)Cn1cc(C(=O)NCCc2ccc(C(F)(F)F)cc2)nn1 | 30.1%
38 | CC(=O)N1CCC(C(=O)NCCc2c[nH]c3cc(C)ccc23)CC1 | 16.1%
39 | CC(=O)NCc1ccc(-c2ccccc2C(=O)O)cn1 | -1.2%
40 | Cc1ncc(CN2CCOCC2)c2cc(C(=O)c3ccc(Br)cc3)oc12 | -13.8%
41 | CCOC1Sc2nnc(C)n2N=C1c1ccc(Cl)cc1 (stereo not drawn) | -8.8%
42 | CCn1cnnc1CNC(=O)N1CCN(CCc2ccccc2)CC1 | -2.4%
43 | COc1ncccc1NC(=O)N(Cc1ccco1)C1CC1 | -14.3%
44 | Cc1ccccc1CN1CCCC1c1cncc(Nc2nncs2)n1 (stereo not drawn) | -13.3%
45 | CCCc1noc(CCCC(=O)N2CCCC2c2cnn(C)c2)n1 (stereo not drawn) | -8.23%
46 | NC(=O)C1CCN(S(=O)(=O)c2cnn(-c3ccccc3)c2)CC1 | -4.05%

Row | Structure (SMILES) | cytotoxicity at 70.5 h
47 | O=C(COc1cccnc1)NCc1nncn1C1CCCCC1 | -5.77%
48 | c1ccc(CN2C[C@@H]3OCCN(c4ncccn4)[C@@H]3C2)nc1 | -12.9%
49 | C/C=C(\C)CN1C[C@H](NC(=O)CCOC)[C@@H](c2ccc(C)o2)C1 | -18%
50 | CN1C[C@@H]2COC[C@]2(C(=O)NCc2cccs2)C1 | 13.4%
51 | CCc1ccc2nc(C)cc(C(=O)N3C[C@H]4CCC[C@@]4(CO)C3)c2c1 | -8.92%
52 | O=C(NCc1nnc2n1CCC2)c1cn(-c2ccccc2Br)nn1 | -2.93%
53 | O=C(c1ccc(F)cc1)N1C[C@@H]2CCN(c3cccnc3)C[C@@H]2C1 | -11.2%
54 | CCN(CC)c1nc2sc(C(=O)NC(C)(C)C(=O)OC)cc2s1 | 0.56%
55 | O=C(NCc1ccccc1)N1C[C@H]2CCN[C@H]2C1 | 26%
56 | Fc1ccc2c(c1)nc1n2[C@@H](CNCc2nccs2)COC1 | -7.36%
57 | Cc1cccc(CNC(Cc2ccsc2)c2nc(C)c(C)s2)n1 (stereo not drawn) | 1.1%
58 | CCCN1CCC(CNC(=O)C2(c3cccc(C)c3)CC2)C1 (stereo not drawn) | 4.42%
59 | CCCN(CCC)S(=O)(=O)c1cc(NC(C)=O)ccc1C | 4.44%
60 | Cn1nc(CN2CCOCC2)c2c1CN(C(=O)c1ccc[nH]1)C2 | 0.563%
61 | c1ccc(OC[C@H]2CCC[C@]23CN(Cc2nccs2)CCO3)nc1 | -4.23%
62 | CCOc1ccc(CNC(=O)c2cnc(OC)nc2)cc1 | -2.49%
63 | C[C@]1(O)CN(CC(=O)N2CCCC2)CC[C@@H]1Oc1cccc(F)c1 | 17.5%
64 | CC(C)(C)C(=O)N1C[C@@H](F)[C@@H](OCc2nc3ncccc3[nH]2)C1 | -2.41%
65 | COc1ccc(Cc2nc3c([nH]2)CC(C)(C)CNC3=O)c(OC)c1 | -9.23%
66 | Cc1cc(CS(=O)(=O)N(C)C(C)c2ccc(F)cc2)on1 (stereo not drawn) | -7.52%
67 | CS(=O)(=O)NCCC(=O)N1CCN(S(=O)(=O)c2ccc(Br)cc2)CC1 | 6.55%
68 | NC(=O)CN1CCCCC1c1nc(N)ncc1-c1cccc(F)c1 (stereo not drawn) | -4.69%
69 | O=C(NCCCc1ccccn1)c1cn(CCN2CCNCC2)nn1 | -9.59%

Row | Structure (SMILES) | cytotoxicity at 70.5 h
70 | NC(=O)c1ccc(N2CCCCC2)c(NC(=O)c2ccc(Br)cc2)c1 | -4.44%
71 | Cc1noc(C)c1-c1ccc(C2CCCN2CCC(N)=O)nc1 (stereo not drawn) | -3.28%
72 | CC(C)(C)CN1CCCC(O)(CN2CCc3[nH]ncc3C2)C1=O (stereo not drawn) | -1.48%
73 | COCc1csc(NC(=O)N2CCC(Cc3cnn(C)c3)C2)n1 (stereo not drawn) | -4.37%
74 | CC(=O)c1cccc(CN2CCCC23CCN(c2ccccn2)CC3)c1 | -4.38%
75 | NC(=O)Cn1cc(NC(=O)N2CCSCC2)cn1 | 15.3%
76 | CC(C)N1CCO[C@H]2CN(C(=O)c3ccoc3)C[C@H]21 | -4.51%
77 | Cc1nc2cc(-c3nccn3C)nn2c(N2CCC(O)CC2)c1C | -3.32%
78 | Cn1c2c(c(=O)n1C)CN(C(=O)c1ccco1)CCC2 | 12.8%
79 | CC(C)(C)OC(=O)NCC1CCCCN1Cc1cccnc1 (stereo not drawn) | -0.715%
80 | Cc1noc([C@@]23CCO[C@@H]2CCN(C(=O)c2cc(C)[nH]c2C)C3)n1 | -2.6%
81 | CN(Cc1ccsc1)C(=O)c1cccc(S(=O)(=O)NCC2CCCO2)c1 (stereo not drawn) | 15.1%
82 | Cc1cnc(C(=O)N2CCC3(CC2)C(=O)NCCN3CC(C)C)cn1 | -2.5%
83 | O=C(c1cc(-c2cccs2)nc2ccccc12)N1CCN(CCO)CC1 | 0.548%
84 | O=C(C1CC=CC1)N1CCC2(CC1)CNCCO2 | -5.99%
85 | Cc1cc(N2CCC(NS(C)(=O)=O)CC2)nc(C(C)C)n1 | -4.49%
86 | Cc1cc(CN2CCOCS2(=O)=O)ccc1F | -7.79%
87 | Cc1nc(NS(=O)(=O)c2cc(Br)ccc2C)no1 | -11.8%
88 | CC(C)C(=O)N1CCCC2(C1)CN(c1nncs1)CCO2 (stereo not drawn) | -2.65%
89 | Cc1nc(C)n(CC2CCCCN2CCS(C)(=O)=O)n1 (stereo not drawn) | 12.7%
90 | COc1c(C)cnc(CNC(=O)c2cc(C)nc3c2c(C)nn3C)c1C | -6.5%
91 | Cc1ccc(CN2CCc3ncnc(OC(C)C)c3CC2)s1 | -6.82%
92 | CC(CC(=O)Nc1ccc(C(=O)N(C)C)c(Cl)c1)n1cccc1 (stereo not drawn) | 7.79%

Row | Structure (SMILES) | cytotoxicity at 70.5 h
93 | CN(Cc1nnc(C2CC2)n1C)C1CCN(Cc2ccccc2)C1 (stereo not drawn) | 17.5%
94 | CCOCC1CN(C2CCCC2)Cc2cnn(CC3CCOCC3)c21 (stereo not drawn) | 2.06%
95 | COc1ccccc1OC1(C(=O)O)CCN(c2nccnc2OC)CC1 | 23.1%
96 | CN(C)c1ncc(CNS(=O)(=O)c2cccc3ccccc23)n1C | -11.7%
97 | CCN1Cc2ccccc2CC2(CCN(C)CC2)C1=O | -7.96%
98 | CS(=O)(=O)N1CCC2(CC1)CN(CC1CCOC1)c1ccccc12 (stereo not drawn) | 5.41%
99 | Clc1ccc(CN(CCN2CCOCC2)Cc2cccnc2)cc1Cl | -5.5%
100 | O=C(CN(Cc1cccs1)C1CCS(=O)(=O)C1)NCCc1cccs1 (stereo not drawn) | -2.26%
101 | COc1ccc(Cl)cc1CS(=O)(=O)Cc1noc(C)n1 | 12.6%
102 | COc1cccc(CN(C(=O)Nc2nncs2)C2CCC(O)CC2)c1 (stereo not drawn) | 0.476%
103 | c1ccc(CN2CCC(NCCSc3cnn[nH]3)CC2)cc1 | 2.48%
104 | Cc1ccsc1CNc1ccc(C(=O)N2CCNC(=O)C2)cn1 | -2.58%
105 | CNS(=O)(=O)CC(=O)N(C1CCCC1)C1CC1 | -12.4%
106 | Cc1ccc(C(=O)NCC(O)CN2CCCC2=O)cc1Cl (stereo not drawn) | 6.85%
107 | O=C(CCc1c[nH]cn1)N1CC[C@@H](c2ccc3ccccc3c2)[C@H](O)C1 | -8.55%
108 | CC(C)N(C(=O)CCc1ccco1)C1CCOCC1 | -9.28%
109 | COCCN1CCN(CC2(O)CCCCC2)CC1 | -0.488%
110 | CN1CCO[C@@H]2CN(C(=O)NCc3ccccc3)CC[C@@H]2C1 | 9.51%
111 | CNC(=O)C1CCN(c2nccc(CCC(F)(F)F)n2)C1 (stereo not drawn) | -3.72%
112 | Cc1ccsc1C(=O)N1CCC2(CC(N(C)c3ccncn3)C2)C1 (stereo not drawn) | -4.77%
113 | Cc1c(Cl)cccc1S(=O)(=O)N1CCC(S(=O)(=O)c2nncn2C)CC1 | 1.44%
